Numbering of substitutions follows the chain as printed. Read-outs that look alike come from different tables or passages of the source.
Tests used:
CDK4/D1 = CDK4/D1 (Homo sapiens, UniProt P11802); assay: ADP Glo kinase assay, CDK4/D1; assay type: biochemical; conditions: CDK4D1; for remaining activity at 10 µM: compound at 10 μM, read-out: residual enzymatic activity (%) at 10 μM; for remaining activity at 1 µM: compound at 1 μM (values marked *), read-out: residual enzymatic activity (%) at 1 μM*
Description: (§1) Inhibition of FLT3(WT), FLT3(ITD) and FLT3(D835Y) and CDKs were determined using ADP Glo Kinase assays (Promega Corporation, Madison, WI, USA). […] Similarly, kinase reaction for CDK4/D1 and CDK6/D3 was performed with reaction buffer (40 nM Tris base pH 7.5, 20 mM MgCl2, 0.4 mM DTT), 0.1 mg/ml BSA and RB-CTF substrate (retinoblastoma protein1 C-terminal fraction). For CDK9/CyclinT1, the kinase reaction was performed with the standard assay buffer and Kinase Dilution Buffer and RBER-IRStide substrate. Half-maximal inhibition (IC50) values were calculated using a 4-parameter logistic non-linear regression model with Graphpad prism (Version 6.0). Apparent inhibition constants (Ki) values were calculated from Km (ATP) and IC50 values for the respective kinases.

CDK6/D3 = CDK6/D3 (Homo sapiens, UniProt Q00534); assay: ADP Glo kinase assay, CDK6/D3; assay type: biochemical; conditions: CDK6D3; for remaining activity at 10 µM: compound at 10 μM, read-out: residual enzymatic activity (%) at 10 μM; for remaining activity at 1 µM: compound at 1 μM (values marked *), read-out: residual enzymatic activity (%) at 1 μM*
Description: as §1

CDK9/CyclinT1 = CDK9/CyclinT1 (Homo sapiens, UniProt P50750); assay: ADP Glo kinase assay, CDK9/CyclinT1; assay type: biochemical; conditions: CDK9T1; for remaining activity at 10 µM: compound at 10 μM, read-out: residual enzymatic activity (%) at 10 μM; for Ki: apparent Ki calculated from Km (ATP) and IC50, read-out: CDK inhibition Ki
FLT3(WT) = biological target: T1, FLT3(WT) (Homo sapiens, UniProt P36888); assay: ADP Glo kinase assay, FLT3(WT); assay type: biochemical; conditions: for remaining activity at 1 µM: compound at 1 μM, read-out: residual enzymatic activity (%) at 1 μM; for Ki: apparent Ki calculated from Km (ATP) and IC50, read-out: FLT3 inhibition Ki
T1 sequence (P36888 27-993): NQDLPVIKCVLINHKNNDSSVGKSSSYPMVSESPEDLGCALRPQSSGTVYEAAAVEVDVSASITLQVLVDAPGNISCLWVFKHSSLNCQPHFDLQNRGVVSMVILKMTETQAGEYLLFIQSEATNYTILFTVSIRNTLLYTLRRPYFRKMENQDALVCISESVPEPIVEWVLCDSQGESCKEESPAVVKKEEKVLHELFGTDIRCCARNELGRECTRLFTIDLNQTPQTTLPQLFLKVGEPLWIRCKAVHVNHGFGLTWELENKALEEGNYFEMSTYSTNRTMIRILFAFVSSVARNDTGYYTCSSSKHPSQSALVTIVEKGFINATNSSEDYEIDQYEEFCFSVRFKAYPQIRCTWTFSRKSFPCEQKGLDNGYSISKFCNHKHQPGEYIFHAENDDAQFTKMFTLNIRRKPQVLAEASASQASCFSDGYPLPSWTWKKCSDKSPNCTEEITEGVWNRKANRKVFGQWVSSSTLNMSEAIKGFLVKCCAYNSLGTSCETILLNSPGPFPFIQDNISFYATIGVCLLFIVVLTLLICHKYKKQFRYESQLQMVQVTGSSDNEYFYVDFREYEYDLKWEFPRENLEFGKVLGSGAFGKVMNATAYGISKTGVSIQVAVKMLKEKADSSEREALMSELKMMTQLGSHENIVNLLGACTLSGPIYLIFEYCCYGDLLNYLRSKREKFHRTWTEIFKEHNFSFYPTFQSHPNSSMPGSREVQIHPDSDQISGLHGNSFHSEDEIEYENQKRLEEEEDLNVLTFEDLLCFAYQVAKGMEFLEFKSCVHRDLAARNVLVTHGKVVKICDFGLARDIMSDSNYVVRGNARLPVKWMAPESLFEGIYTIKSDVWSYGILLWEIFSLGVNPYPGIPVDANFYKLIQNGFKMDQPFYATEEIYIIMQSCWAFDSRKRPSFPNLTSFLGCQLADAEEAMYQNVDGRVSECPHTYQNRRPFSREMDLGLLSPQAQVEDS
Description: (§2) Inhibition of FLT3(WT), FLT3(ITD) and FLT3(D835Y) and CDKs were determined using ADP Glo Kinase assays (Promega Corporation, Madison, WI, USA). […] The kinase reactions are run for an optimised time period (FLT3-WT: 120 min, FLT3-ITD: 80 min, FLT3-D835Y: 100 min) at room temperature and then the reaction was stopped by adding 5 μL of ADP Glo reagent. […] Positive and negative controls were performed in 0.5% DMSO in the presence and absence of each FLT3 kinase, respectively. […] Half-maximal inhibition (IC50) values were calculated using a 4-parameter logistic non-linear regression model with Graphpad prism (Version 6.0). Apparent inhibition constants (Ki) values were calculated from Km (ATP) and IC50 values for the respective kinases.

FLT3(ITD) = biological target: T2, FLT3(ITD) (Homo sapiens, UniProt P36888); assay: ADP Glo kinase assay, FLT3(ITD); assay type: biochemical; conditions: apparent Ki calculated from Km (ATP) and IC50, read-out: FLT3 inhibition Ki
T2 sequence (P36888 1-993): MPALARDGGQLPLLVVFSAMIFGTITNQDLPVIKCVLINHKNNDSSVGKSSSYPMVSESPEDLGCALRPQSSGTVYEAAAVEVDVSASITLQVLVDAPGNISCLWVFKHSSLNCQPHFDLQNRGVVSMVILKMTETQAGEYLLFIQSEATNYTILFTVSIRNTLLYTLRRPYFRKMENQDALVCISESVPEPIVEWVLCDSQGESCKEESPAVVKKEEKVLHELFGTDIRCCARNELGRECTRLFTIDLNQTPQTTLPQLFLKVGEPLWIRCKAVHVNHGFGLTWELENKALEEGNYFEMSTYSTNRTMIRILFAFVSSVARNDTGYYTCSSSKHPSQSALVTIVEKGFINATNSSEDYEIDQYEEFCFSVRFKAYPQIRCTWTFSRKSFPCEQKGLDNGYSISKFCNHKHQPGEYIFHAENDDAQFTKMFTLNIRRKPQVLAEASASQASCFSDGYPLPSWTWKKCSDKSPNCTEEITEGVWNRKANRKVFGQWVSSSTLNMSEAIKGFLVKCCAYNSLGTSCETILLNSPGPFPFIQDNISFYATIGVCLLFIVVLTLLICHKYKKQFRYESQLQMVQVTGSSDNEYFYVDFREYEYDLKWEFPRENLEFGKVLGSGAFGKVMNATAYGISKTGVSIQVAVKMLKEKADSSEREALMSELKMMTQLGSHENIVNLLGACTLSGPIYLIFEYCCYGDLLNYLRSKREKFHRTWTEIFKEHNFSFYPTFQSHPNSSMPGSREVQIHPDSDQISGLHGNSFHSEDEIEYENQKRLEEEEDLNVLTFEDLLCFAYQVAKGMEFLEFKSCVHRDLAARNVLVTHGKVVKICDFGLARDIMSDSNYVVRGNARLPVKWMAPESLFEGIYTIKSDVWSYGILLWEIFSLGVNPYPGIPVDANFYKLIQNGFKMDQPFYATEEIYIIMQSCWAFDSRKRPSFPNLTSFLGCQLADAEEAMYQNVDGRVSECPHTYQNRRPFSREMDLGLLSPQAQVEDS
Description: as §2

FLT3(D835Y) = biological target: T3, FLT3(D835Y) (Homo sapiens, UniProt P36888, D835Y); assay: ADP Glo kinase assay, FLT3(D835Y); assay type: biochemical; conditions: apparent Ki calculated from Km (ATP) and IC50, read-out: FLT3 inhibition Ki
T3 sequence (P36888 27-993 D835Y): T1 sequence (P36888 27-993) with D809Y
Description: as §2

MV-4-11 = assay: Proliferation assay (resazurin/MTT), MV-4-11; assay type: cell-based; conditions: Homo sapiens, MV4-11, read-out: 72 h Growth inhibition GI50, MV-4-11 cells
U937 = assay: Proliferation assay (resazurin/MTT), U937; assay type: cell-based; conditions: Homo sapiens, U-937, read-out: 72 h Growth inhibition GI50, U937 cells
CDK1B = CDK1B (Homo sapiens, UniProt P06493)
CDK2E1 = CDK2E1 (Homo sapiens, UniProt P24941); conditions: 1 µM
CDK7HMAT1 = CDK7HMAT1 (Homo sapiens, UniProt P50613); conditions: 10 µM;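 note: kinase activity measured with an ADP-Glo luminescent kinase assay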
CDK7HMAT1, sequence (P50613 whole entry): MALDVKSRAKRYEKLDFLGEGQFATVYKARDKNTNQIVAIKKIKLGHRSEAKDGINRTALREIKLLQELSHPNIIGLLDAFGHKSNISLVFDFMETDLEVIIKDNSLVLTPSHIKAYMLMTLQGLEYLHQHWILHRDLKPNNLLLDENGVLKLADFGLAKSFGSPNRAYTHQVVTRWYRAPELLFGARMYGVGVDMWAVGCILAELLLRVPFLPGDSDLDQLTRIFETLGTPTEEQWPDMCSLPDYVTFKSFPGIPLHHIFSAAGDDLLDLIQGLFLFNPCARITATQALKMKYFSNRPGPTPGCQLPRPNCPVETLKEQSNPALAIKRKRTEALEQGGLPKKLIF
CDK7HMAT1, sequence (P51946 whole entry partner): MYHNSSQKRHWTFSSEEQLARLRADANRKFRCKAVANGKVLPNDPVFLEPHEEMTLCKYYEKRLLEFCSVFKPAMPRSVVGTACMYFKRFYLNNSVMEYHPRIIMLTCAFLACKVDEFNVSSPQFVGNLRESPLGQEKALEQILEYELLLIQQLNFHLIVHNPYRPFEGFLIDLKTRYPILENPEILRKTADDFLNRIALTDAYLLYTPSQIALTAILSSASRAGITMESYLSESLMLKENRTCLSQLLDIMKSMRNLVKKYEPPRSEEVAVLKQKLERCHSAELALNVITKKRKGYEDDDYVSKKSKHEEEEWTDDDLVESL
CDK7HMAT1, sequence (P51948 whole entry partner): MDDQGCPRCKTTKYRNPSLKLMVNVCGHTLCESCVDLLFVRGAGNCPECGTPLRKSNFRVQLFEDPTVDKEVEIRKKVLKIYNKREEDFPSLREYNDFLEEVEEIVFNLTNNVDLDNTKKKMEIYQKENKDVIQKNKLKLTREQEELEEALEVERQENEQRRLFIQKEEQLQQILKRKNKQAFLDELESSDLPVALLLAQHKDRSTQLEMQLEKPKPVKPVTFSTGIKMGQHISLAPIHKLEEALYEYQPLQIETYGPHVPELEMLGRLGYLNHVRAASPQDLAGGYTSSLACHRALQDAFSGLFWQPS
Description: as §2

CDK4/D1, sequence (P11802 whole entry, species assumed): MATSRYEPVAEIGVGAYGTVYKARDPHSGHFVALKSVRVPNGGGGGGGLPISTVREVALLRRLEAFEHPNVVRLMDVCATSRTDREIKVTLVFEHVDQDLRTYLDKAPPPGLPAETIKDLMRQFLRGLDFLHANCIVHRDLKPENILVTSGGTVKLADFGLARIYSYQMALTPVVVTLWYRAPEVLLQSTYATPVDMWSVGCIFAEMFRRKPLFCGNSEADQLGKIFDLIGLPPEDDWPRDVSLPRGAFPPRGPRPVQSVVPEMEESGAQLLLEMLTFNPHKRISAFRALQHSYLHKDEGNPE
CDK4/D1, sequence (P24385 whole entry partner, species assumed): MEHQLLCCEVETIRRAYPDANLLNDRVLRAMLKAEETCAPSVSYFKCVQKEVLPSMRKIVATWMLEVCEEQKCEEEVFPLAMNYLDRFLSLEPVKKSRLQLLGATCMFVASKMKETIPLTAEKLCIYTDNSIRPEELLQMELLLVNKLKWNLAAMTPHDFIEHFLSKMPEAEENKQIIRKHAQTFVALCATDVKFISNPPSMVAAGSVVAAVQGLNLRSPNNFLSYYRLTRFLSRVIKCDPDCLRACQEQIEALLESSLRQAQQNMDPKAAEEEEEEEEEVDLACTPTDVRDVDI
CDK1B, sequence (P06493 whole entry): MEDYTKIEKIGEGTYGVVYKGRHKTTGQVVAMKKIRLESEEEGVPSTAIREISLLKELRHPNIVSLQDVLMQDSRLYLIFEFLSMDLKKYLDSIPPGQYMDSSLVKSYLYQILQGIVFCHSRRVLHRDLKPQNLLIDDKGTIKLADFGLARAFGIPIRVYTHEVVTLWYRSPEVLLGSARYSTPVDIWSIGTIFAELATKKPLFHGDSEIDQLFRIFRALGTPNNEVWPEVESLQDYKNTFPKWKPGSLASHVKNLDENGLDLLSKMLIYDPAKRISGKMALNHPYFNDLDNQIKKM
CDK1B, sequence (P14635 whole entry partner): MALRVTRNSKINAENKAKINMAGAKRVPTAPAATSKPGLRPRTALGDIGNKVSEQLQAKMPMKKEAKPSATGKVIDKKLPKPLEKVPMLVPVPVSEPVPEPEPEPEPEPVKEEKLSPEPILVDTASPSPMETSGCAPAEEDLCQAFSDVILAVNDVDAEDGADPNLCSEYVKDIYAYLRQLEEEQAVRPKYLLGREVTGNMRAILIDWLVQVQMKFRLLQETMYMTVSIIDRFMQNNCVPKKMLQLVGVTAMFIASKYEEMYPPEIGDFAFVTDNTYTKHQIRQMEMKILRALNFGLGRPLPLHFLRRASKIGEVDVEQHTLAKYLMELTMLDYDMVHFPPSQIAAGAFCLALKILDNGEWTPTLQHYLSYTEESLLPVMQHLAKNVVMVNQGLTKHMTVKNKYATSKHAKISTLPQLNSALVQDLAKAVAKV
CDK9/CyclinT1, sequence (P50750 whole entry, species assumed): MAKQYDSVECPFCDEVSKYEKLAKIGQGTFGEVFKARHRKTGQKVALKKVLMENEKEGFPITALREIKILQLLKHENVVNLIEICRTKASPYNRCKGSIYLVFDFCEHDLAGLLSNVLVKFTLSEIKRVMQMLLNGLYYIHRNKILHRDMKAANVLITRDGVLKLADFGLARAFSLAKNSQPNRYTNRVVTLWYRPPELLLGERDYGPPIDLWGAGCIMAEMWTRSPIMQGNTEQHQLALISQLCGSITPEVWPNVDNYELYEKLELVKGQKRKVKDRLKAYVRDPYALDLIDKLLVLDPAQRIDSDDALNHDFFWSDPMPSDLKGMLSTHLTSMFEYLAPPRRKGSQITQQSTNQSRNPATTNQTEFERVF
CDK9/CyclinT1, sequence (O60563 whole entry partner, species assumed): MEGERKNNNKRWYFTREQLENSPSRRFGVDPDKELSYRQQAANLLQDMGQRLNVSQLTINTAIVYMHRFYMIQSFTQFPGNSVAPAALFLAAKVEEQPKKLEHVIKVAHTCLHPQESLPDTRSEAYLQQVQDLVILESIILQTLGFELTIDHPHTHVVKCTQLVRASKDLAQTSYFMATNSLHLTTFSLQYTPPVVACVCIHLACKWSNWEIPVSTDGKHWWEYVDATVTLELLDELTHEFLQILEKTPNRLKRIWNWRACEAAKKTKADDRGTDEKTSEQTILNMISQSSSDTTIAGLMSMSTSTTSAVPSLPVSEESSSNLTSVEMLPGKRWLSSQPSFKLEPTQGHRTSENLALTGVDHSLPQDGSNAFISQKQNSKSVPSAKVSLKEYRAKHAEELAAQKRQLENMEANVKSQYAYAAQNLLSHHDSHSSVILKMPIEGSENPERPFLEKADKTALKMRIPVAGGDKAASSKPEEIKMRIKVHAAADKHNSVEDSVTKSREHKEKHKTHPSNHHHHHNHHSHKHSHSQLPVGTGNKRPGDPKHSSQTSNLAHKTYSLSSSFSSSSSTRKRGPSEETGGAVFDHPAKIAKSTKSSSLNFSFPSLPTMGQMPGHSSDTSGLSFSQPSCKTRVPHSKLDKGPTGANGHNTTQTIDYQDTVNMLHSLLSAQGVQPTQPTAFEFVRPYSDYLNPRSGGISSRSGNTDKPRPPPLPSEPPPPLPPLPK
CDK6/D3, sequence (Q00534 whole entry, species assumed): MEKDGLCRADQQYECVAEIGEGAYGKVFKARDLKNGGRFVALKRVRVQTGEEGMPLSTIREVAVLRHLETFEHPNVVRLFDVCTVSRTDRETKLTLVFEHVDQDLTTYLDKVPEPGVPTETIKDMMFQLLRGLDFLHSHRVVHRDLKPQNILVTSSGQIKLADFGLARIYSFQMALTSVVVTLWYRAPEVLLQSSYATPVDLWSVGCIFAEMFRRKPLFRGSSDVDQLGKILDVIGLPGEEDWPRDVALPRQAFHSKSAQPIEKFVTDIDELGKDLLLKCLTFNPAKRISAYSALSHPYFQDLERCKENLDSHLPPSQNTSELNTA
CDK6/D3, sequence (P30281 whole entry partner, species assumed): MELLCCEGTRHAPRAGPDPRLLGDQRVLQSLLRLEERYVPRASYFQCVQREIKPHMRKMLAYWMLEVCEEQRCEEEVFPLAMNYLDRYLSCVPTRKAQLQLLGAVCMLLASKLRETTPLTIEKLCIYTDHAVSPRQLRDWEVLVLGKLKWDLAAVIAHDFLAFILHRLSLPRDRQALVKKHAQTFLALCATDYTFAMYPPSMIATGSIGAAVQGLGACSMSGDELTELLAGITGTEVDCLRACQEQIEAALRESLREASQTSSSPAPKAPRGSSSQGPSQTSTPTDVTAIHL

remaining activity at 10 µM (CDK4/D1) [%] | remaining activity at 10 µM (CDK6/D3) [%] | remaining activity at 10 µM (CDK9/CyclinT1) [%] | remaining activity at 1 µM (FLT3(WT)) [%] | Ki (FLT3(ITD)) [nM] | Ki (FLT3(D835Y)) [nM] | GI50 (MV-4-11) [nM] | GI50 (U937) [nM] | activity (CDK1B; 10 µM) [%] | activity (CDK2E1) [%] | activity (CDK7HMAT1) [%] | Ki (FLT3(WT)) [nM] | remaining activity at 1 µM (CDK4/D1) [%] | remaining activity at 1 µM (CDK6/D3) [%] | activity (CDK1B; 1 µM) [%] | Ki (CDK9/CyclinT1) [nM] | Structure (SMILES)
70 | 77 | 38 | 36 | 127 | 58 | 60 | 4040 | 100 | 83 | 66 |  |  |  |  |  | CC(=O)N1CCN(c2ccc(Nc3nccc(-c4cnc5ccc(-c6cnc(N7CCN(C)CC7)nc6)cn45)n3)nc2)CC1 [Cmpd 20, 1-(4-(6-((4-(6-(2-(4-Methylpiperazin-1-yl)pyrimidin-5-yl)imidazo[1,2-a]pyridin-3-yl)pyrimidin-2-yl)amino)pyridin-3-yl)piperazin-1-yl)ethan-1-one]
78 | 99 |  | 23 | 426 | 48 | 18 | 2920 | 81 | 90 | 60 |  |  |  |  |  | CC(=O)N1CCN(c2ccc(Nc3nccc(-c4cnc5ccc(-c6cncnc6)cn45)n3)nc2)CC1 [Cmpd 16, 1-(4-(6-((4-(6-(Pyrimidin-5-yl)imidazo[1,2-a]pyridin-3-yl)pyrimidin-2-yl)amino)pyridin-3-yl)piperazin-1-yl)ethan-1-one]
34 | 36 | 23 |  | 6 | 10 | 2 | 3130 | 41 | 58 | 55 | 83 |  |  |  |  | CC(=O)N1CCN(c2ccc(Nc3nccc(-c4cnc5ccc(Br)cn45)n3)nc2)CC1 [Cmpd 10, 1-(4-(6-((4-(6-Bromoimidazo[1,2-a]pyridin-3-yl)pyrimidin-2-yl)amino)pyridin-3-yl)piperazin-1-yl)ethan-1-one]
 |  | 62 |  | 489 | > 500 | 545 | 645 |  | 103 |  | > 500 | 72 | 85 | 79 |  | Brc1ccc(Nc2nccc(-c3cnc4ccccn34)n2)nc1 [Cmpd 47, N-(5-Bromopyridin-2-yl)-4-(imidazo[1,2-a]pyridin-3-yl)pyrimidin-2-amine]
 |  |  |  | 421 | 584 | 213 | 691 |  | 52 |  | > 500 |  |  |  |  | Clc1ccc(Nc2nccc(-c3cnc4ccccn34)n2)nc1 [Cmpd 52, N-(5-Chloropyridin-2-yl)-4-(imidazo[1,2-a]pyridin-3-yl)pyrimidin-2-amine]
 |  |  |  | 29 |  | 6 | 773 |  |  |  |  |  |  |  |  | CN1CCN(c2ccc(Nc3nccc(-c4cnc5ccc(-c6cnn(C)c6)cn45)n3)nc2)CC1 [Cmpd 62, 4-(6-(1-Methyl-1H-pyrazol-4-yl)imidazo[1,2-a]pyridin-3-yl)-N-(5-(4-methylpiperazin-1-yl)pyridin-2-yl)pyrimidin-2-amine]
 |  |  |  | > 500 | > 500 | 382 | 2500 |  | 99 |  | > 500 |  |  |  |  | Ic1ccc(Nc2nccc(-c3cnc4ccccn34)n2)nc1 [Cmpd 53, 4-(Imidazo[1,2-a]pyridin-3-yl)-N-(5-iodopyridin-2-yl)pyrimidin-2-amine]
 |  |  |  | 15 | 13 | 23 | 1960 |  | 49 |  | 25 | 34 | 46 | 71 | 111 | CN1CCN(c2ccc(Nc3nccc(-c4cnc5ccc(Br)cn45)n3)nc2)CC1 [Cmpd 45, 4-(6-Bromoimidazo[1,2-a]pyridin-3-yl)-N-(5-(4-methylpiperazin-1-yl)pyridin-2-yl)pyrimidin-2-amine]
 |  |  |  | 116 |  | 174 | 1090 |  | 80 |  |  |  |  |  | 345 | CN1CCN(c2ccc(Nc3nccc(-c4cnc5ccc(-c6cncnc6)cn45)n3)nc2)CC1 [Cmpd 66, N-(5-(4-Methylpiperazin-1-yl)pyridin-2-yl)-4-(6-(pyrimidin-5-yl)imidazo[1,2-a]pyridin-3-yl)pyrimidin-2-amine]
